pKi: −log10 of the molar value. Structures can show the parent of a compound that is named as a salt.

The source of these data is patent publication US6403633B2, “Heteroaryl amidines, methylamidines and guanidines, and use thereof as protease inhibitors” (3-Dimensional Pharmaceuticals, Inc., priority 1998, dated 2002).

The target in the first assay is T1, bovine trypsin (Bos taurus, UniProt P00760).
T1 construct: purchased Sigma T8642
T1 sequence (P00760 24-246): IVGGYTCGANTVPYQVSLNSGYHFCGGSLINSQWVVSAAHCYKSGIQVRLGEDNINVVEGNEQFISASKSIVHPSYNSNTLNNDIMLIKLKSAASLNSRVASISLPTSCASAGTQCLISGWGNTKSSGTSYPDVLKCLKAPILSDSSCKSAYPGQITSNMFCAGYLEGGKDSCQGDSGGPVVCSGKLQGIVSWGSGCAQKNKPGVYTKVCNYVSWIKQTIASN
The assay is described as follows: In vitro inhibition of purified enzymes, Ki determination: trypsin. The assay is classed as biochemical. To be noted: substrate N-benzoyl-Phe-Val-Arg-p-nitroanilide 13 μM, [Trypsin]=4 nM, pH 7.5, 37° C. The source says:
Reagents: All buffer salts were obtained from Sigma Chemical Company (St. Louis, Mo.), and were of the highest purity available. The enzyme substrates, N-benzoyl-Phe-Val-Arg-p-nitroanilide (Sigma B7632), N-benzoyl-Ile-Glu-Gly-Arg-p-nitroanilide hydrochloride (Sigma B2291), N-p-tosyl-Gly-Pro-Lys-p-nitroanilide (Sigma T6140), N-succinyl-Ala-Ala-Pro-Phe-p-nitroanilide (Sigma S7388) and N-CBZ-Val-Gly-Arg-p-nitroanilide (Sigma C7271) were obtained from Sigma. N-Succinyl-Ala-Ala-Pro-Arg-p-nitroanilide (BACHEM L-1720) and N-succinyl-Ala-Ala-Pro-Val-p-nitroanilide (BACHEM L-1770) were obtained from BACHEM (King of Prussia, Pa).
Human α-thrombin, human factor Xa and human plasmin were obtained from Enzyme Research Laboratories (South Bend, Ind.). […] In general, substrate concentrations are lower than the experimentally determined value for Km. […]
In a typical Ki determination, into each well of a 96 well plate is pipetted 280 μL of substrate solution, 10 μL of test compound solution, and the plate allowed to thermally equilibrate at 37° C. in a Molecular Devices plate reader for >15 minutes. Reactions were initiated by the addition of a 10 μL aliquot of enzyme and the absorbance increase at 405 nm is recorded for 15 minutes. […] The data are fit to a linear regression, and the value of the slope of the line calculated. The inverse of the slope is the experimentally determined Ki value. […]
A word on the pKi: it is −log10 of the Ki, conventionally taken in molar units. On to `COc1cccc(-c2csc(-c3cc(C(=N)N)sc3SC)n2)c1` [Example 8, 4-[4-(3-Methoxyphenyl)(1,3-thiazol-2-yl)]-5-methylthiothiophene-2-carboxamidine hydrochloride], for which the pKi is 6.07.
For the compound `CSc1sc(C(=N)N)cc1-c1nc(-c2cccc(OCC(=O)N3CCOCC3)c2)cs1` [Example 52, 5-Methylthio-4-{4-[3-(2-morpholin-4-yl-2-oxoethox)phenyl](1,3-thiazol-2-yl)}thiophene-2-carboxamidine trifluoroacetate], the negative logarithm of the Ki (pKi) was 6.32.

Another assay addresses T2, human kidney urokinase (Homo sapiens, UniProt P00749).
T2 construct: purchased Sigma U5004; host or cells: human kidney cells
The assay is described as follows: In vitro inhibition of purified enzymes, Ki determination: urokinase (uPA). Type of assay: biochemical.
Details: not given
The source says:
Reagents: All buffer salts were obtained from Sigma Chemical Company (St. Louis, Mo.), and were of the highest purity available. The enzyme substrates, N-benzoyl-Phe-Val-Arg-p-nitroanilide (Sigma B7632), N-benzoyl-Ile-Glu-Gly-Arg-p-nitroanilide hydrochloride (Sigma B2291), N-p-tosyl-Gly-Pro-Lys-p-nitroanilide (Sigma T6140), N-succinyl-Ala-Ala-Pro-Phe-p-nitroanilide (Sigma S7388) and N-CBZ-Val-Gly-Arg-p-nitroanilide (Sigma C7271) were obtained from Sigma.
Human α-thrombin, human factor Xa and human plasmin were obtained from Enzyme Research Laboratories (South Bend, Ind.). Bovine α-chymotrypsin (Sigma C4129), bovine trypsin (Sigma T8642) and human kidney cell urokinase (Sigma U5004) were obtained from Sigma. Human leukocyte elastase was obtained from Elastin Products (Pacific, Mo.). Ki Determinations: All assays are based on the ability of the test compound to inhibit the enzyme catalyzed hydrolysis of a peptide p-nitroanilide substrate. […] The final concentrations for each of the substrates is listed below. In general, substrate concentrations are lower than the experimentally determined value for Km. Test compounds are prepared as a 1.0 mg/ml solution in DMSO. Dilutions are prepared in DMSO yielding 8 final concentrations encompassing a 200 fold concentration range. Enzyme solutions are prepared at the concentrations listed below in assay buffer.
Data corresponding to less than 10% of the total substrate hydrolysis were used in the calculations. The ratio of the velocity (rate of change in absorbance as a function of time) for a sample containing no test compound is divided by the velocity of a sample containing test compound, and is plotted as a function of test compound concentration. The data are fit to a linear regression, and the value of the slope of the line calculated. The inverse of the slope is the experimentally determined Ki value. Thrombin: Thrombin activity was assessed as the ability to hydrolyze the substrate N-succinyl-Ala-Ala-Pro-Arg-p-nitroanilide. […] Final DMSO concentration was 4.3%. […] Factor X [FXa]: FXa activity was assessed as the ability to hydrolyze the substrate N-benzoyl-Ile-Glu-Gly-Arg-p-nitroanilide hydrochloride. […] Final DMSO concentration was 4.3%. Purified activated human Factor X was diluted into assay buffer to a concentration of 300 nM. […] Plasmin: Plasmin activity was assessed as the ability to hydrolyze the N-p-Tosyl-Gly-Pro-Lys-p-nitroanilide. […] Final DMSO concentration was 4.3%. […] Chymotrypsin: Chymotrypsin activity was assessed as the ability to hydrolyze N-succinyl-Ala-Ala-Pro-Phe-p-nitroanilide. […] Final DMSO concentration was 4.3%. […] Trypsin: Trypsin activity was assessed as the ability to hydrolyze N-benzoyl-Phe-Val-Arg-p-nitroanilide. […] Final DMSO concentration was 4.3%. […] Elastase: Elastase activity was assessed as the ability to hydrolyze N-succinyl-Ala-Ala-Pro-Val-p-nitroanilide. […] Final DMSO concentration was 4.3%. […] Urokinase: Urokinase activity was assessed as the ability to hydrolyze N-CBZ-Val-Gly-Arg-p-nitroanilide. […] Final DMSO concentration was 4.3%. […] Final reagent concentrations were: [Urokinase]=40 nM, and N-CBZ-Val-Gly-Arg-p-nitroanilide]=[…].
Compound `CSc1sc(C(=N)N)cc1Oc1ccccc1` [Example 288, 5-Methylthio-4-phenoxythiophene-2-carboxamidine trifluoroacetate] gave a pKi of 5.46 to 7.80.

Still in this assay, the particulars now being: uPA; substrate N-CBZ-Val-Gly-Arg-p-nitroanilide; [Urokinase]=40 nM; pH 7.5, 37° C.; one range stated for the listed compounds; read-out: Ki values for uPA.
`COc1ccc(OC)c(-c2csc(-c3cc(C(=N)N)sc3SC)n2)c1` [Example 28, 4-[4-(2,5-Dimethoxyphenyl)(1,3-thiazol-2-yl)]-5-methylthiothiophene-2-carboxamidine hydrochloride]: the pKi is 5.46 to 7.80.
On the same count and under the same terms, to `CSc1sc(C(=N)N)cc1-c1nc(-c2cccc(OCC(=O)O)c2)cs1` [Example 40, 2-{3-[2-(5-Amidino-2-methylthio-3-thienyl)-1,3-thiazol-4-yl]phenoxy}acetic acid] belongs 5.46 to 7.80; to `CSc1sc(C(=N)N)cc1-c1ncc(-c2ccccc2)o1` [Example 79, 5-Methylthio-4-(5-phenyl(1,3-oxazol-2-yl))thiophene-2-carboxamidine hydrochloride], 5.46 to 7.80; to `CSc1sc(C(=N)N)cc1-c1nc(-c2ccccc2)co1` [Example 84, 5-Methylthio-4-(4-phenyl(1,3-oxazol-2-yl))thiophene-2-carboxamidine hydrochloride], 5.46 to 7.80.
Regarding `CSc1sc(C(=N)N)cc1C(=N)NCc1ccccc1` [Example 89, 4-{Imino[benzylamino]methyl}-5-methylthiothiophene-2-carboxamidine hydrochloride], the negative-log Ki (pKi) is 5.46 to 7.80.
Take `CSc1sc(C(=N)N)cc1-c1nc(-c2ccccc2)c(-c2ccccc2)s1` [Example 131, 4-(4,5-Diphenyl(1,3-thiazol-2-yl))-5-methylthiothiophene-2-carboxamidine]: the pKi is 5.46 to 7.80.
In the case of `C[S+]([O-])c1sc(C(=N)N)cc1-c1nc(-c2ccc(Cl)cc2)cs1` (stereo not shown) [Example 138, 4-[4-(4-Chlorophenyl)(1,3-thiazol-2-yl)]-5-(methylsulfinyl)thiophene-2-carboxamidine], the pKi is 5.46 to 7.80.
Still for that read-out and setting: the value for `COc1sc(C(=N)N)cc1-c1nc(-c2ccccc2)cs1` [Example 139, 5-Methoxy-4-(4-phenyl(1,3-thiazol-2-yl))thiophene-2-carboxamidine] was 5.46 to 7.80; that for `CSc1sc(C(=N)N)cc1-c1nc(-c2cc(C(C)(C)C)nn2Cc2ccccc2)cs1` [Example 143, 4-{4-[3-(tert-Butyl)-1-benzylpyrazol-5-yl](1,3-thiazol-2-yl)}-5-methylthiothiophene-2-carboxamidine] was 5.46 to 7.80; that for `CSc1sc(C(=N)N)cc1Nc1ncccn1` [Example 200, 5-Methylthio-4-(pyrimidin-2-ylamino)thiophene-2-carboxamidine hydrochloride] was 5.46 to 7.80.
Consider `CSc1sc(C(=N)N)cc1Nc1nc(-c2ccccc2)cs1` [Example 204, 5-Methylthio-4-[(4-phenyl(1,3-thiazol-2-yl))amino]thiophene-2-carboxamidine], for which the pKi was 5.46 to 7.80.
The same measure, in the same setting: the value for `CSc1sc(C(=N)N)cc1Nc1ccc2ccccc2c1` [Example 208, 5-Methylthio-4-(2-naphthylamino)thiophene-2-carboxamidine] was 5.46 to 7.80; that for `CSc1sc(C(=N)N)cc1Nc1cccc([N+](=O)[O-])c1` [Example 213, 5-Methylthio-4-[(3-nitrophenyl)amino]thiophene-2-carboxamidine] was 5.46 to 7.80; that for `CSc1sc(C(=N)N)cc1NCc1ccccc1` [Example 220, 5-Methylthio-4-[benzylamino]thiophene-2-carboxamidine] was 5.46 to 7.80.
In the case of `CSc1sc(C(=N)N)cc1NC(=O)/C=C/c1ccccc1` [Example 227, 4-((2E)-3-Phenylprop-2-enoylamino)-5-methylthiothiophene-2-carboxamidine], the pKi is 5.46 to 7.80.
Still for that read-out and setting: to `CSc1sc(C(=N)N)cc1NC(=O)c1ccc(Oc2cc(Cl)cc(Cl)c2)o1` [Example 233] belongs 5.46 to 7.80; to `CSc1sc(C(=N)N)cc1NC(=O)c1ccc2ccccc2n1` [Example 235, 5-Methylthio-4-(2-quinolylcarbonylamino)thiophene-2-carboxamidine], 5.46 to 7.80.
Take `CSc1sc(C(=N)N)cc1NC(=O)COc1ccccc1` [Example 239, 5-Methylthio-4-(2-phenoxyacetylamino)thiophene-2-carboxamidine]: the pKi is 5.46 to 7.80.
Turning to `CSc1sc(C(=N)N)cc1N(S(=O)(=O)c1ccc(Cl)cc1)S(=O)(=O)c1ccc(Cl)cc1` [Example 281, 4-{Bis[(4-chlorophenyl)sulfonyl]amino}-5-methylthiothiophene-2-carboxamidine], the pKi was 5.46 to 7.80.
